Test results reported in ChEMBL document CHEMBL4765440, “Neuroprotective effects of prenylated flavanones isolated from Dalea species, in vitro and in silico studies” (Eur J Med Chem, 2020).
The source made the active and inactive calls. The rule behind the calls is not given here.

Tests used:
[1] = test system: Cerebellar granule neurone; assay: (§1) Neuroprotective activity against H2O2-induced neuronal death in Sprague-Dawley rat primary cerebellar granule neurons assessed as increase in cell viability at 0.5 to 300 uM preincubated for 24 hrs followed by H2O2 addition and measured after 24 hrs by MTT assay; type: functional, tissue-based; conditions: dose 0.5-300 µM, time 48.0 hrs
[2] = Cytotoxicity against Sprague-Dawley rat primary cerebellar granule neurons assessed as reduction in cell viability measured after 48 hrs by MTT assay; type: tissue-based, Cerebellar granule neurone; conditions: read-out: LC50
[3] = Neuroprotective activity against H2O2-induced neuronal death in Sprague-Dawley rat primary cerebellar granule neurons assessed as increase in cell viability preincubated for 24 hrs followed by H2O2 addition and measured after 24 hrs by MTT assay relative to control; type: functional, Cerebellar granule neurone; conditions: time 48 hrs
[4] = (§2) Neuroprotective activity against H2O2-induced neuronal death in Sprague-Dawley rat primary cerebellar granule neurons assessed as increase in cell viability preincubated for 24 hrs followed by H2O2 addition and measured after 24 hrs by MTT assay; type: functional, Cerebellar granule neurone; conditions: time 48 hrs
[5] = test system: Cerebellar granule neurone; assay: as §2; type: functional; conditions: time 48.0 hrs
[6] = test system: Cerebellar granule neurone; assay: Neuroprotective activity against H2O2-induced neuronal death in Sprague-Dawley rat primary cerebellar granule neurons assessed as increase in cell viability at 0.5 to 10 uM preincubated for 24 hrs followed by H2O2 addition and measured after 24 hrs by MTT assay; type: functional, tissue-based; conditions: dose 0.5-10 µM, time 48.0 hrs
[7] = Cytotoxicity against […] cells assessed as reduction in cell viability measured after 24 hrs by neutral red staining based spectrophotometric method; conditions: read-out: LC50
[8] = test system: Cerebellar granule neurone; assay: as §1, with “reduction” for “increase”, “neurite fragmentation” for “cell viability”, “Hoechst 33258 staining based confocal immunofluorescence microscopic analysis” for “MTT assay”; type: functional, tissue-based; conditions: dose 0.5-300 µM, time 48.0 hrs
Acetylcholinesterase [9] = molecular target: T1, Acetylcholinesterase (Homo sapiens, UniProt P22303); assay: Potency index, ratio of physostigmine IC50 to test compound IC50 for human erythrocytes AChE
[10] = Neuroprotective activity against H2O2-induced cell death in […] cells at 0.5 uM preincubated for 24 hrs followed by H2O2 addition and measured after 24 hrs by neutral red staining based spectrophotometric method relative to control; type: functional; conditions: time 48 hrs
[11] = test system: Cerebellar granule neurone; assay: as §1, with “reduction” for “increase”, “nuclear condensation” for “cell viability”, “Hoechst 33258 staining based confocal immunofluorescence microscopic analysis” for “MTT assay”; type: functional, tissue-based; conditions: dose 0.5-300 µM, time 48.0 hrs
Acetylcholinesterase [12] = molecular target: T1, Acetylcholinesterase; assay: Inhibition of human erythrocytes AChE using acetylthiocholine iodide as substrate measured after 30 mins by Ellman's method

T1 sequence (P22303 whole entry): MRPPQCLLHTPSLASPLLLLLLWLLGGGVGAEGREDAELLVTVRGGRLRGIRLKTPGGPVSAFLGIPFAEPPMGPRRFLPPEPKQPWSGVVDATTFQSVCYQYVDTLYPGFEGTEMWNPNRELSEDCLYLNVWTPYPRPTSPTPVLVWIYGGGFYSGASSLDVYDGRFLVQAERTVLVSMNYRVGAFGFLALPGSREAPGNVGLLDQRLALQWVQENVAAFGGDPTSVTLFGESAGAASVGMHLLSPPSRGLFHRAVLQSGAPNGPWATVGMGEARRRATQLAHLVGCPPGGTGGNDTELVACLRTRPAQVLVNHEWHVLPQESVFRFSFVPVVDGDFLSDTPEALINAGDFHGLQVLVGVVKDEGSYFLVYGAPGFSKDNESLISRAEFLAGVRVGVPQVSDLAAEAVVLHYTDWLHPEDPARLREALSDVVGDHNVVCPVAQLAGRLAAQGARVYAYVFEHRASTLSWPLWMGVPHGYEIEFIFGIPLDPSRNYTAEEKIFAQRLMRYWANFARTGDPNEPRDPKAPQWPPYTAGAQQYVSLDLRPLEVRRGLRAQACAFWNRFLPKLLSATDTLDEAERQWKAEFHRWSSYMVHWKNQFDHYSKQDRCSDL

| Compound | Activity [1] | CC50 at 48 h [2] [µM] | %max [3] [%] | EC [4] [µM] | Activity [5] | Activity [6] | CC50 at 24 h [7] [µM] | Activity [8] | Ratio IC50 (Acetylcholinesterase [9]) | Activity [10] [%] | Activity [11] | IC50 (Acetylcholinesterase [12]) [µM] |
| --- | --- | --- | --- | --- | --- | --- | --- | --- | --- | --- | --- | --- |
| CC(C)=CCc1c(O)cc2c(c1O)C(=O)C[C@@H](c1ccc(O)c(O)c1CC=C(C)C)O2 | inactive | > 300 |  |  |  |  |  |  |  |  |  |  |
| C=CC(C)(C)c1cc([C@@H]2CC(=O)c3c(O)cc(O)c(CC=C(C)C)c3O2)c(OC)cc1O |  | > 300 | 22.3 | 200 | Dose-dependent effect |  |  |  |  |  |  |  |
| CC(C)=CCc1c(O)cc(O)c2c1O[C@H](c1ccccc1)CC2=O [GLABRANIN] |  | 44.5 | 20.34 | 10 |  | inactive | 27.3 | Active | 12 | 31.32 | Active | 0.0064 |
| C=CC(C)(C)c1cc([C@@H]2CC(=O)c3c(cc(O)c(CC=C(C)C)c3O)O2)c(OC)cc1O | inactive | 40.7 |  |  |  |  |  |  |  |  |  |  |
| C=CC(C)(C)c1cc([C@@H]2CC(=O)c3c(O)cc(O)c(CC=C(C)C)c3O2)c(O)cc1O |  | 12.5 | 16.37 | 5 |  | inactive | 13 | Active |  | 51.76 | Active | 29 |
| O=C1C[C@@H](c2ccccc2)Oc2cc(O)cc(O)c21 [PINOCEMBRIN] | inactive | 247 |  |  |  |  |  |  |  |  |  |  |
